Entries after “also recorded” stand apart in the source; their conditions may differ. Where two headings read alike, the source gives them in different places.
What was measured:
[1] = biological target: T1, cannabinoidergic CB1 receptors (Rattus norvegicus, UniProt P20272); test: Radioreceptorial binding, [3H]-CP-55,940 competition, rat brain membranes
T1 construct: the brain in toto (cerebellum excluded) and the spleen were rapidly dissected and maintained in ice; from tissue; host or cells: rat brain (cerebellum excluded), membrane preparation
Procedure: (§1) The affinity of the synthesized compounds towards the cannabinoidergic CB1 and CB2 receptors was evaluated in vitro through radioreceptorial binding studies by utilizing the following method.
(§2) The receptorial binding technique allows indeed to establish if and with what affinity and specificity a determined compound binds itself to a particular receptor. To evaluate the possible affinity of a determined compound towards a particular receptor it is necessary to make to compete (in a particular preparation of the tissue in which those determined receptors are present) the compound to be tested with another compound whose affinity is known and whose molecule was rendered radioactive. […] The reading of the radioactivity present in the receptor-compound complex allows furthermore to calculate with extreme precision the amount of compound bound to the receptor. […] By repeating the same experimental scheme it is possible to evaluate the affinity of the compound towards other kinds of receptors and establish then the specificity degree.
(§3) Food and water were available ad libitum.
(§4) The animals were sacrificed by cervical dislocation, the brain in toto (cerebellum excluded) and the spleen were rapidly dissected and maintained in ice.
(§5) The tissue was homogenized in 15 volumes (weight/volume) of TME buffer (50 mM Tris, 1 mM EDTA e 3 mM MgCl2, pH 7.4) by an Ultra-Turrax and centrifuged for 10 minutes at 1086×g in a centrifuge cooled at 4° C. The resulting supernatant was centrifuged at 45,000×g for 30 min at 4° C. by using a Beckman SW41 rotor and the final pellet was resuspended in 50 volumes of TME.
(§6) The obtained membranes (50-80 μg of proteins) were incubated in the presence of 1 nM di[^3H]-CP55,940 for 1 h at 30° C. in a final volume of 0.5 ml of TME buffer containing 5 mg/ml of bovine serum albumin (BSA). The non specific binding was measured in the presence of CP55,940 at the 1 μM concentration.
(§7) All the experiments were carried out in polypropylene test tubes pretreated with Sigma-Cote (Sigma Chemical Co. Ltd., Poole, UK) to reduce the non specific binding.
(§8) For the building of the competitive inhibition binding curves eight different concentrations of each compound were used.
(§9) Incubation was interrupted by addition of TME buffer (at 4° C.) containing 5 mg/ml of BSA and filtration under vacuum through Whatman GFC filters pretreated with 0.5% of polyethylamine (PEI) and by using a filtering apparatus (Brandell, Gaithersburg, Md., USA). Filters were washed 3 times with 5 ml of Tris HCl buffer (pH 7.4, 4° C.) containing 1 mg/ml of BSA and singly placed in plastic vials containing 4 ml of scintillating liquid (Ultima Gold MV, Packard).
(§10) The radioactivity present in the filters was measured by a scintillator spectrophotometer (Tricarb 2100, Packard, Meridien, USA).
(§11) The protein determination was carried out by the Bradford method by using the protocol and the reactants supplied by Bio-Rad (Milano, Italia).
(§12) The affinity of the compounds towards the CB1 and CB2 receptors was expressed in Ki terms.

[2] = biological target: T2, cannabinoidergic CB2 receptors (Rattus norvegicus, UniProt Q9QZN9); test: Radioreceptorial binding, [3H]-CP-55,940 competition, rat spleen membranes
T2 construct: the brain in toto (cerebellum excluded) and the spleen were rapidly dissected and maintained in ice; from tissue; host or cells: rat spleen, membrane preparation
T2 sequence (Q9QZN9 1-360): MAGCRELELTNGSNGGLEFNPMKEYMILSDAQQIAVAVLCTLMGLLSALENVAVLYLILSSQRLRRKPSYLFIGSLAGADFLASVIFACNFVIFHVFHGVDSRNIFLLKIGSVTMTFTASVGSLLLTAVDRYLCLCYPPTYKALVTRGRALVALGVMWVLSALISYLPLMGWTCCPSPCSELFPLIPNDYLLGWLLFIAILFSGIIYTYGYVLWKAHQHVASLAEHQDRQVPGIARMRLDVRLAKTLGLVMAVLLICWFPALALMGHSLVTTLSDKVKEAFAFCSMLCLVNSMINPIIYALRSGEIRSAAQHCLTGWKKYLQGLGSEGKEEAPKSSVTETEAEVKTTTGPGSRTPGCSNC
Procedure: as §1, §2, §3, §4, §5, §6, §7, §8, §9, §10, §11, §12

rat = conditions: concluded from the hypothermia tests
Procedure: The rectal temperature in the rat was determined by an electronic thermometer inserted at a 2 mm depth. The measurements were carried out on rats acclimated for one hour. […]
Each test was repeated on ten animals; the reported results are the average of the results obtained with the ten animals.

rat intestinal motility [3] = test: Intestinal motility, Upper Gut Transit Test, compound alone; format: in vivo; conditions: control 50%
Procedure: (§13) To evaluate the activity in vivo of the compounds (I) object of the present invention, functional tests were carried out directed to the evaluation of the effect of said compounds on the rat intestinal motility. It was indeed shown the involvement of the cannabinoidergic CB1 receptors in the intestinal motility regulation in rat (R. G. Pertwee et al; Br. J. Pharmacol.; 1996, 118, 2199-2205). In particular, the CB1 receptor agonists slacken the gastrointestinal motility; antagonist compounds of the same receptors have instead a prokinetic effect on the gastrointestinal transit (G. Colombo et al.; Eur. J. Pharmacol.; 1998, 344, 67-69; M. A. Casu et al.; Eur. J. Pharmacol.; 2003, 459, 97-105).
(§14) The evaluation of the constipating or prokinetic effect of the compounds was carried out by the Upper Gut Transit Test method on the basis of the procedure defined and ratified by Y. Nagakura et al.; Eur. J. Pharmacol.; 1996, 311, 67-72. The method, which allows to measure the motility of the stomach and of the first intestine tract (small or little intestine), requires: • the administration of the compound to be tested by i.p. route; • the administration of carmine red (marker not directly absorbable from the stomach) by intragastric route through a metal probe, after 20 minutes from the administration of the compound to be tested; • the rat sacrifice by cervical dislocation after a pre-fixed time (30 minutes) starting from the administration time; • the intestine explant from pylorus to the ileo-cecal valve; • the determination of the intestinal part crossed by the marker; • the data processing to determine the percentage of crossed part with respect to the total length of the small intestine.
With respect to the control (physiological solution or carrier wherein the compounds to be tested were solubilized or dispersed), the administration of CB1 agonist compounds implies an intestinal transit percentage reduction; an opposite effect is noticed in case of antagonist compounds. The latter are therefore capable to cancel the constipating effect of CB1 agonist compounds.
Each test was repeated on ten animals; the results reported in the Examples are the average of the results obtained with ten animals.

rat intestinal motility [4] = test: Intestinal motility, Upper Gut Transit Test, antagonism of the constipating action of WIN 55,212-2; format: in vivo; conditions: WIN alone 25%
Procedure: as §13, §14
With respect to the control (physiological solution or carrier wherein the compounds to be tested were solubilized or dispersed), the administration of CB1 agonist compounds implies an intestinal transit percentage reduction; an opposite effect is noticed in case of antagonist compounds. The latter are therefore capable to cancel the constipating effect of CB1 agonist compounds. […]

T1 sequence (P20272 whole entry): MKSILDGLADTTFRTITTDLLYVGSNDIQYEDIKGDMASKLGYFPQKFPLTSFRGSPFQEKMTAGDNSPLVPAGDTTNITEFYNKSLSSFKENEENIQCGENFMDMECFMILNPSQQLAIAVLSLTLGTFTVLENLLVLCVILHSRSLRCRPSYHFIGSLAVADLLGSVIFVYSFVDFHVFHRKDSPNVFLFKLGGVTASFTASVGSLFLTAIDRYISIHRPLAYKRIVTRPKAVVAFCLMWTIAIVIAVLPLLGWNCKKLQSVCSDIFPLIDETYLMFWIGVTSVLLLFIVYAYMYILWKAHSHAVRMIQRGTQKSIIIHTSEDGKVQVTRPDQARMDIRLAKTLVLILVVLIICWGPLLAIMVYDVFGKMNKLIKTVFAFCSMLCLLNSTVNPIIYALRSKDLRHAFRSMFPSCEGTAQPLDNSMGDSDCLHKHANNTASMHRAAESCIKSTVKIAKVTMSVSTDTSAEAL

| SMILES | Ki ([1]; rat brain membranes, 1 nM [3H]-CP55,940, read-out: CB1 (brain) Ki) | Ki ([2]; rat spleen membranes, 1 nM [3H]-CP55,940, read-out: CB2 (spleen) Ki) | passage of the hemato-encephalic barrier (rat) | intestinal portion run by the marker with respect to the total intestine length (rat intestinal motility [3]; compound 5 mg/kg i.p.) | intestinal portion run by the marker with respect to the total intestine length (rat intestinal motility [4]; compound 1.5 mg/kg before WIN 55,212-2 0.5 mg/kg) | melting point | Ki [1] | Ki [2] | intestinal portion run by the marker with respect to the total intestine length (rat intestinal motility [3]; compound 1 mg/kg i.p.) | intestinal portion run by the marker with respect to the total intestine length (rat intestinal motility [4]; compound 0.3 mg/kg before WIN 55,212-2 0.5 mg/kg) |
| --- | --- | --- | --- | --- | --- | --- | --- | --- | --- | --- |
| O=C(NN1CCCC1)c1nn(-c2ccc(Cl)cc2Cl)c2c1CCc1sc(Cl)cc1-2 [Example 3.5, N-pyrrolidinyl-7-chloro-1-(2′,4′-dichlorophenyl)-4,5-dihydro-1H-thieno[2,3-g]indazol-3-carboxamide] | 137 ± 12 nM | 243 ± 14 nM | not able to pass the hemato-encephalic barrier | 67% | 50% | 228 °C | – | – | – | – |
| O=C(NN1CCCCCC1)c1nn(-c2ccc(Cl)cc2Cl)c2c1CCc1sc(Cl)cc1-2 [Example 3.6, N-homopiperidinyl-7-chloro-1-(2′,4′-dichlorophenyl)-4,5-dihydro-1H-thieno[2,3-g]indazol-3-carboxamide] | – | – | unable to pass the hemato-encephalic barrier; also recorded: not capable to pass the hemato-encephalic barrier | 75% | – | 181 to 182 °C | 9.83 ± 0.72 nM | 20.8 ± 1.4 nM | 65% | 50% |

Reference: patent US8106218B2, “Pharmaceutical compounds” (Neuroscienze Pharmaness S.C. A R.L., priority 2004, dated 2012)
